The values that follow come from US10711008B2, “Indoline analogs and uses thereof” (Oncternal Therapeutics, Inc., priority 2016, dated 2020).

What all share (format): cell-based, human
Holding throughout (conditions): 3 days with compound at 0.02 to 5 μM, CCK-8, A450, 50% inhibition of cell viability

Test [1] concerns SKES (type 2, 7/5) cells (Ewing Sarcoma cell line). Briefly: Cell growth inhibition, modified tetrazolium salt assay (CCK-8 kit), SKES cells. As to the method: (§1) A modified tetrazolium salt assay using the CCK-8 kit (Sigma-Aldrich; St Louis, Mo.) was used to measure the inhibition of human tumor cell growth. Tumor cells (5000-7500 per well) were added to 96 well plates and allowed to attach for 4-5 hours. Compounds were serially diluted and added in triplicate at a concentration of 0.02 to 5 μM. DMSO was included as a vehicle control. Cells were incubated in the presence of compound for 3 days. After incubation CCK-8 reagent was added to each well and incubated for 2-4 hours. Viable cells were quantitated spectrophotometrically at a wavelength of 450 nm. Percent viability of each sample was calculated from the A450 values as follows: % viability=(A450 nm sample/A450 nm DMSO-treated cells×100). The IC50 was defined as the concentration that gave rise to 50% inhibition of cell viability. IC50 activities of particular compounds were determined using SKES (type 2, 7/5) cells (Ewing Sarcoma cell line), TC71 (Type 1, 7/6) cells (Ewing Sarcoma cell line), and A4573 (Type 3, 10/6) cells (Ewing Sarcoma cell line). […] TK-216 is a YK-4-279 clinical derivative that is in phase 1 for patients with relapsed or refractory Ewing sarcoma. Preclinical testing has been conducted for TK-216 in lymphoma models. Test results for the analogs were compared to those for TK-216 and YK-4-279.
In general terms: Tetrazolium dyes change colour on reduction, which living cells bring about.

In test [2] the test system is A4573 (Type 3, 10/6) cells (Ewing Sarcoma cell line). Put plainly: Cell growth inhibition, modified tetrazolium salt assay (CCK-8 kit), A4573 cells. How it is done: as §1
The test system of test [3] is TC71 (Type 1, 7/6) cells (Ewing Sarcoma cell line). Put plainly: Cell growth inhibition, modified tetrazolium salt assay (CCK-8 kit), TC71 cells. How it is done:
as §1

For orientation: IC50 means the concentration needed to halve the response being measured. For the compound `O=C(CC1(O)C(=O)Nc2c(Cl)ccc(Cl)c21)c1cc(C2CC2)cs1` (stereo not drawn) [TK Analog 23], the IC50 in test [1] (Homo sapiens, 72 h) is > 5 µM; in test [2] (Homo sapiens, 72 h), > 5 µM; in test [3] (Homo sapiens, TC-71, 72 h), > 5 µM.
Consider `COc1ccc2c(CC3(O)C(=O)Nc4c(Cl)ccc(Cl)c43)noc2c1` (stereo not drawn) [TK Analog 17], for which the IC50 in test [1] (Homo sapiens, 72 h) is > 5 µM; in test [2] (Homo sapiens, 72 h), > 5 µM; in test [3] (Homo sapiens, TC-71, 72 h), > 5 µM.
Regarding `O=C(CC1(O)C(=O)Nc2c(Cl)ccc(Cl)c21)c1ccc(C2CC2)cn1` (stereo not drawn) [TK Analog 21], the IC50 is > 5 µM in test [1] (Homo sapiens, 72 h); > 5 µM in test [2] (Homo sapiens, 72 h); > 5 µM in test [3] (Homo sapiens, TC-71, 72 h).
In the case of `O=C(CC1(O)C(=O)Nc2c(Cl)ccc(Cl)c21)c1ccc2sccc2c1` (stereo not drawn) [TK Analog 10], the IC50 in test [1] (Homo sapiens, 72 h) was < 5 µM; in test [2] (Homo sapiens, 72 h) it was < 5 µM; in test [3] (Homo sapiens, TC-71, 72 h), < 5 µM.
`CNC(=O)Oc1ccc(C(=O)CC2(O)C(=O)Nc3c(Cl)ccc(Cl)c32)cc1` (stereo not drawn) [TK Analog 13]: the IC50 in test [1] (Homo sapiens, 72 h) was > 5 µM; in test [2] (Homo sapiens, 72 h), > 5 µM; in test [3] (Homo sapiens, TC-71, 72 h), > 5 µM.
With `O=C(CC1(O)C(=O)Nc2c(Cl)ccc(Cl)c21)c1ccc2ccccc2c1` (stereo not drawn) [TK Analog 19], the IC50 was < 5 µM in test [1] (Homo sapiens, 72 h); < 5 µM in test [2] (Homo sapiens, 72 h); < 5 µM in test [3] (Homo sapiens, TC-71, 72 h).
With `O=C(CC1(O)C(=O)Nc2c(Cl)ccc(Cl)c21)c1ccc(C2CC2)nc1` (stereo not drawn) [TK Analog 20], the IC50 in test [1] (Homo sapiens, 72 h) is > 5 µM; in test [2] (Homo sapiens, 72 h), > 5 µM; in test [3] (Homo sapiens, TC-71, 72 h) it was > 5 µM.
Regarding `C#Cc1ccc(C(=O)CC2(O)C(=O)Nc3c(Cl)ccc(Cl)c32)cc1` (stereo not drawn) [TK Analog 5], the IC50 is > 5 µM in test [1] (Homo sapiens, 72 h); > 5 µM in test [2] (Homo sapiens, 72 h); > 5 µM in test [3] (Homo sapiens, TC-71, 72 h).
`COc1ccc(C(=O)CC2(O)C(=O)Nc3c(Cl)ccc(Cl)c32)c(F)c1` (stereo not drawn) [TK Analog 15A]: the IC50 in test [1] (Homo sapiens, 72 h) was < 5 µM; in test [2] (Homo sapiens, 72 h), < 5 µM; in test [3] (Homo sapiens, TC-71, 72 h), < 5 µM.
With `O=C(CC1(O)C(=O)Nc2c(Cl)ccc(Cl)c21)c1ccc(OC(F)F)cc1` (stereo not drawn) [TK Analog 4], the IC50 in test [1] (Homo sapiens, 72 h) is > 5 µM; in test [2] (Homo sapiens, 72 h), > 5 µM; in test [3] (Homo sapiens, TC-71, 72 h), > 5 µM.
On to `COc1ccc2c(cnn2CC2(O)C(=O)Nc3c(Cl)ccc(Cl)c32)c1` (stereo not drawn) [TK Analog 16], for which the IC50 is < 5 µM in test [1] (Homo sapiens, 72 h); > 5 µM in test [2] (Homo sapiens, 72 h); > 5 µM in test [3] (Homo sapiens, TC-71, 72 h).
`O=C(CC1(O)C(=O)Nc2c(Cl)ccc(Cl)c21)c1ccc2[nH]ccc2c1` (stereo not drawn) [TK Analog 11]: the IC50 in test [1] (Homo sapiens, 72 h) was < 5 µM; in test [2] (Homo sapiens, 72 h), < 5 µM; in test [3] (Homo sapiens, TC-71, 72 h) it was < 5 µM.
With `CN(C)c1ccc(-c2cc3c(nn2)[nH]c2c(Cl)ccc(Cl)c23)cc1` [TK Analog 14], the IC50 was > 5 µM in test [1] (Homo sapiens, 72 h); > 5 µM in test [2] (Homo sapiens, 72 h); > 5 µM in test [3] (Homo sapiens, TC-71, 72 h).
Consider `COc1ccc2nn(CC3(O)C(=O)Nc4c(Cl)ccc(Cl)c43)cc2c1` (stereo not drawn) [TK Analog 16A], for which the IC50 in test [1] (Homo sapiens, 72 h) is > 5 µM; in test [2] (Homo sapiens, 72 h) it was > 5 µM; in test [3] (Homo sapiens, TC-71, 72 h), > 5 µM.
Consider `COc1ccc2c(CC3(O)C(=O)Nc4c(Cl)ccc(Cl)c43)nsc2c1` (stereo not drawn) [TK Analog 18], for which the IC50 was < 5 µM in test [1] (Homo sapiens, 72 h); > 5 µM in test [2] (Homo sapiens, 72 h); > 5 µM in test [3] (Homo sapiens, TC-71, 72 h).
On to `NC1(c2ccc(C(=O)CC3(O)C(=O)Nc4c(Cl)ccc(Cl)c43)cc2)CC1` (stereo not drawn) [TK Analog 3], for which the IC50 in test [1] (Homo sapiens, 72 h) was < 5 µM; in test [2] (Homo sapiens, 72 h) it was > 5 µM; in test [3] (Homo sapiens, TC-71, 72 h), > 5 µM.
On to `O=C(CC1(O)C(=O)Nc2c(Cl)ccc(Cl)c21)c1ccc(C2CC2)cc1` (stereo not drawn) [TK-216-2, reference compound], for which the IC50 in test [1], in test [2] and in test [3] was < 5 µM throughout.
On to `O=C(CC1(O)C(=O)Nc2c(Cl)ccc(Cl)c21)c1ccc2occc2c1` (stereo not drawn) [TK Analog 9], for which the IC50 in test [1] (Homo sapiens, 72 h) is < 5 µM; in test [2] (Homo sapiens, 72 h), > 5 µM; in test [3] (Homo sapiens, TC-71, 72 h) it was > 5 µM.
As for `O=C(CC1(O)C(=O)Nc2c(Cl)ccc(Cl)c21)c1csc(C2CC2)c1` (stereo not drawn) [TK Analog 24], the IC50 was > 5 µM in test [1] (Homo sapiens, 72 h); > 5 µM in test [2] (Homo sapiens, 72 h); > 5 µM in test [3] (Homo sapiens, TC-71, 72 h).
For `COc1ccc(C(=O)CC2(N)C(=O)Nc3c(Cl)ccc(Cl)c32)cc1` (stereo not drawn) [TK Analog 8], the IC50 was < 5 µM in test [1] (Homo sapiens, 72 h); > 5 µM in test [2] (Homo sapiens, 72 h); > 5 µM in test [3] (Homo sapiens, TC-71, 72 h).
On to `COc1ccc(C(=O)CC2(F)C(=O)Nc3c(Cl)ccc(Cl)c32)cc1` (stereo not drawn) [TK Analog 7], for which the IC50 was < 5 µM in test [1] (Homo sapiens, 72 h); < 5 µM in test [2] (Homo sapiens, 72 h); < 5 µM in test [3] (Homo sapiens, TC-71, 72 h).
In the case of `O=C(CC1(O)C(=O)Nc2c(Cl)ccc(Cl)c21)c1ccc(C2CC2)s1` (stereo not drawn) [TK Analog 22], the IC50 in test [1] (Homo sapiens, 72 h) is < 5 µM; in test [2] (Homo sapiens, 72 h) it was > 5 µM; in test [3] (Homo sapiens, TC-71, 72 h), > 5 µM.
For the compound `COc1ccc(C(=O)CC2C(=O)Nc3c(Cl)ccc(Cl)c32)cc1` (stereo not drawn) [TK Analog 6], the IC50 in test [1] (Homo sapiens, 72 h) is < 5 µM; in test [2] (Homo sapiens, 72 h), < 5 µM; in test [3] (Homo sapiens, TC-71, 72 h), < 5 µM.
Regarding `O=C(CC1(O)C(=O)Nc2c(Cl)ccc(Cl)c21)c1ccc(C2(F)CC2)cc1` (stereo not drawn) [TK Analog 2], the IC50 in test [1] (Homo sapiens, 72 h) is < 5 µM; in test [2] (Homo sapiens, 72 h) it was < 5 µM; in test [3] (Homo sapiens, TC-71, 72 h), < 5 µM.
As to `COc1ccc(C(=O)CC2(O)C(=O)Nc3c(Cl)ccc(Cl)c32)cc1` (stereo not drawn) [YK-4-279, 4,7-dichloro-3-hydroxy-3-(2-(4-methoxyphenyl)-2-oxoethyl)indolin-2-one, reference compound], the IC50 in test [1] (Homo sapiens, 72 h) was < 5 µM; in test [2] (Homo sapiens, 72 h), < 5 µM; in test [3] (Homo sapiens, TC-71, 72 h), < 5 µM.
